Laboratory results reported in the supplement of paper PMC10307832.

How the values were obtained:
Test in all cases: relative viability (nuclei count vs DMSO), 5 days (fraction); higher = more cells survive
[1] = compound: CC1=C(C(=O)N2C=CSC2=N1)CCN3CCC(=C(C4=CC=CC=C4)C5=CC=C(C=C5)F)CC3 + CC(C)C[C@H](NC(=O)[C@H](Cc1ccccc1)NC(=O)c1cnccn1)B(O)O [Bortezomib] (partner 0.002 µM)
Outline: (§1)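 For relative viability, nuclei counts in treated wells were divided by those in vehicle wells. Lung cancer cell lines had been pin-tool dosed in 1536-well plates the day after seeding and cultured for 5 days, then fixed and stained in one step (final 0.05% Triton X-100, 1% formaldehyde, 1 ug/ml Hoechst) and imaged at 4×. Doses were one drug alone or a fixed anchor-drug dose plus five library-drug doses (not always all listed) in √10 steps, and values are duplicate-plate medians.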

[2] = compound: CC1=C(C(=O)N2C=CSC2=N1)CCN3CCC(=C(C4=CC=CC=C4)C5=CC=C(C=C5)F)CC3 + CC(=O)Nc1cccc(-n2c(=O)n(C3CC3)c(=O)c3c(Nc4ccc(I)cc4F)n(C)c(=O)c(C)c32)c1 [Trametinib] (partner 0.02 µM)
Outline: as §1

[3] = compound: CC1=C(C(=O)N2C=CSC2=N1)CCN3CCC(=C(C4=CC=CC=C4)C5=CC=C(C=C5)F)CC3 + O=C(c1cc(Cc2n[nH]c(=O)c3ccccc23)ccc1F)N1CCN(C(=O)C2CC2)CC1 [Olaparib] (partner 8 µM)
Outline: as §1

[4] = compound: CC1=C(C(=O)N2C=CSC2=N1)CCN3CCC(=C(C4=CC=CC=C4)C5=CC=C(C=C5)F)CC3 + CS(=O)(=O)N1CCN(Cc2cc3nc(-c4cccc5[nH]ncc45)nc(N4CCOCC4)c3s2)CC1 [Pictilisib] (partner 1 µM)
Outline: as §1

Row | Cell Line | relative viability ([1]; first compound 0.253 µM) | relative viability ([1]; first compound 0.8 µM) | relative viability ([1]; first compound 2.53 µM) | relative viability ([1]; first compound 8 µM) | relative viability ([2]; first compound 0.08 µM) | relative viability ([2]; first compound 0.253 µM) | relative viability ([2]; first compound 0.8 µM) | relative viability ([2]; first compound 2.53 µM) | relative viability ([2]; first compound 8 µM) | relative viability ([3]; first compound 0.08 µM) | relative viability ([3]; first compound 0.253 µM) | relative viability ([3]; first compound 0.8 µM) | relative viability ([3]; first compound 2.53 µM) | relative viability ([3]; first compound 8 µM) | relative viability ([4]; first compound 0.253 µM) | relative viability ([4]; first compound 0.8 µM) | relative viability ([4]; first compound 2.53 µM) | relative viability ([4]; first compound 8 µM) | relative viability ([1]; first compound 0.08 µM) | relative viability ([4]; first compound 0.08 µM)
1 | NCI-H1437 | 0.398 | 0.476 | 0.484 | 0.351 | 0.385 | 0.56 | 0.588 | 0.601 | 0.28 | 0.658 | 0.692 | 0.66 | 0.692 | 0.51 | 0.446 | 0.388 | 0.406 | 0.485 |  | 
2 | NCI-H1650 | 0.193 | 0.21 | 0.234 | 0.227 | 0.513 | 0.532 | 0.483 | 0.722 | 0.412 | 0.782 | 0.838 | 0.862 | 0.819 | 0.605 | 0.682 | 0.519 | 0.586 | 0.389 | 0.216 | 0.586
3 | NCI-H1651 | 0.874 | 0.908 | 1.01 | 0.809 | 0.783 | 0.915 | 0.837 | 0.866 | 0.712 | 0.165 | 0.176 | 0.189 | 0.217 | 0.183 | 0.676 | 0.51 | 0.684 | 0.495 | 0.858 | 0.621
4 | NCI-H1666 | 0.762 | 0.924 | 0.815 | 0.695 | 0.76 | 0.891 | 0.9 | 0.985 | 0.717 | 0.698 | 0.756 | 0.684 | 0.751 | 0.764 | 0.434 | 0.381 | 0.461 | 0.431 | 0.83 | 0.393
5 | NCI-H1734 | 0.715 | 0.915 | 1.12 | 0.447 | 0.741 | 0.598 | 0.691 | 0.688 | 0.512 | 0.554 | 0.526 | 0.624 | 0.767 | 0.396 | 0.468 | 0.485 | 0.504 | 0.331 | 0.873 | 0.476
6 | NCI-H1755 | 0.9 | 0.962 | 1.11 | 0.44 | 0.751 | 0.716 | 0.794 | 0.778 | 0.595 | 0.892 | 0.995 | 0.939 | 0.934 | 0.719 | 0.482 | 0.42 | 0.423 | 0.37 | 0.948 | 0.387
7 | NCI-H1792 | 0.614 | 0.976 | 0.77 | 0.438 | 0.205 | 0.432 | 0.378 | 0.531 | 0.166 | 0.318 | 0.357 | 0.631 | 0.603 | 0.348 | 0.257 | 0.251 | 0.232 | 0.308 | 0.742 | 0.241
